Several values for one entry are separate records, joined by “and”; a condition that tells them apart may be missing. Equal values may be shown once. Entries after “also recorded” stand apart in the source; their conditions may differ.
Assays:
HsGUS (human GUS) = target: T1, HsGUS (human GUS) (Homo sapiens, UniProt P08236); assay: GUS inhibition assay, hydrolysis of 4-methylumbelliferyl-β-glucuronide, HsGUS; assay type: biochemical; settings: HsGUS; at 1 mM; read-out: percentage of inhibition
T1 construct: HsGUS was prepared as described[37]; made in house
T1 sequence (P08236 23-651): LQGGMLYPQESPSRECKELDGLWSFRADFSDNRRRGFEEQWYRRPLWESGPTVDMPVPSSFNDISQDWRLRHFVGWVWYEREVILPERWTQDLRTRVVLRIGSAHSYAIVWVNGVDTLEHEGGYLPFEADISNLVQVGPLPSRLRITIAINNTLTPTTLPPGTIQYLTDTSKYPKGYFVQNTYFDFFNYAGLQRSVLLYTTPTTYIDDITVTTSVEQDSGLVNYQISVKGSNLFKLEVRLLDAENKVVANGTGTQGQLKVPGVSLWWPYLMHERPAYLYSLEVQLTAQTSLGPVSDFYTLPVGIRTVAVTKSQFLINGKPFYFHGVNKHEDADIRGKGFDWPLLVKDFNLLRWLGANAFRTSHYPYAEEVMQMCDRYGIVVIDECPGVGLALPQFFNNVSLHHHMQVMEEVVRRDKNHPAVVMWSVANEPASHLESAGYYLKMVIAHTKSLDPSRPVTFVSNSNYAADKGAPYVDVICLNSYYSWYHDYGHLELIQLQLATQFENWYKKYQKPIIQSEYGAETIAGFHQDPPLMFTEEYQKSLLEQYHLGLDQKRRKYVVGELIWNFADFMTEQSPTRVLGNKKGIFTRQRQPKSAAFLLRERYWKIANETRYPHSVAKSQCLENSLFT

[1] = target: EcGUS (Escherichia coli GUS) (Escherichia coli, UniProt P05804); assay: biochemical
Sequence of EcGUS (Escherichia coli GUS) (P05804 whole entry, the tested form may be a part): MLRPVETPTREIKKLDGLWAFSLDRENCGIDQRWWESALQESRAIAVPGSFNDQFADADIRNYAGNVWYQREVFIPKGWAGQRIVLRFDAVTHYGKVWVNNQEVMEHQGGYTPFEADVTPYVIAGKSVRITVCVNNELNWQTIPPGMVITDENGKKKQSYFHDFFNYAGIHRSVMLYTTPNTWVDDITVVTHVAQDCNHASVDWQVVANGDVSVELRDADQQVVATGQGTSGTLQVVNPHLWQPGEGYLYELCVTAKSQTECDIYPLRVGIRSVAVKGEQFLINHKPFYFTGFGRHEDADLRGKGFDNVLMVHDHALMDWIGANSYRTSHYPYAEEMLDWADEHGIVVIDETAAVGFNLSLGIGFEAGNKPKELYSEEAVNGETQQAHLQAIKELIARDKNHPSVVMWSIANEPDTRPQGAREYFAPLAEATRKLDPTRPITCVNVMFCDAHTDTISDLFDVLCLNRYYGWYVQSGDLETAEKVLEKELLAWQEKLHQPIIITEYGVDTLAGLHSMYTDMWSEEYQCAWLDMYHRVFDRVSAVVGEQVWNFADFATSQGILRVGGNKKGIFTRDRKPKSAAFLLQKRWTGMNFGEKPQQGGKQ

BALB/c mice [2] = assay: In vivo diarrhea test (CPT-11); parameters: species or system mouse; key to Diarrhea Score: 0: Normal stool; 1: Slight perianal staining of the coat; 2: Moderate perianal staining of the coat; 3: Watery mucosal-infused stool with severe perianal staining of the coat; Death
patients = patients taking irinotecan; cited from earlier work
BALB/c mice [3] = assay: Colon histology (hematoxylin and eosin) after oral gavage; assay type: in vivo, mouse; settings: female BALB/c mice; oral gavage for 5 days; 3 at 37.5 mg per kg body weight, ASN03273363 at 65 mg
[4] = Day 6, individual mice (Box 1-8)
[5] = Day 7, individual mice (Box 1-8)
[6] = Day 8, individual mice (Box 1-8)
[7] = Day 9, individual mice (Box 1-8)
[8] = Day 10, individual mice (Box 1-8)
[9] = Day 11, individual mice (Box 1-8)
[10] = Day 12, individual mice (Box 1-8)

Row | SMILES | inhibition at 1000 µM (HsGUS (human GUS)) [%] | IC50 [1] [µM] | Diarrhea Score, mean (BALB/c mice [2]; Day 6, group mean) | Diarrhea Score (BALB/c mice [2]; [4]) | Diarrhea Score, mean (BALB/c mice [2]; Day 7, group mean) | Diarrhea Score (BALB/c mice [2]; [5]) | Diarrhea Score, mean (BALB/c mice [2]; Day 8, group mean) | Diarrhea Score (BALB/c mice [2]; [6]) | Diarrhea Score, mean (BALB/c mice [2]; Day 9, group mean) | Diarrhea Score (BALB/c mice [2]; [7]) | Diarrhea Score, mean (BALB/c mice [2]; Day 10, group mean) | Diarrhea Score (BALB/c mice [2]; [8]) | Diarrhea Score, mean (BALB/c mice [2]; Day 11, group mean) | Diarrhea Score (BALB/c mice [2]; [9]) | Diarrhea Score, mean (BALB/c mice [2]; Day 12, group mean) | Diarrhea Score (BALB/c mice [2]; [10]) | other results
1 | CCCCCC[C@@H]1NC[C@@H](O)[C@H](O)[C@H]1CO [Compound 12] | 0.6 | 24.9 |  |  |  |  |  |  |  |  |  |  |  |  |  |  | 
2 | CCCCCC[C@@H]1NC[C@@H](O)[C@H](O)[C@H]1C(=O)O [Inhibior 3] |  |  | 0.0 | 0 | 0.0 | 0 | 0.0 | 0 | 0.0 | 0 | 0.0 | 0 | 0.0 | 0 | 0.0 | 0 | 
3 | CCc1c2c(nc3ccc(OC(=O)N4CCC(N5CCCCC5)CC4)cc13)-c1cc3c(c(=O)n1C2)COC(=O)[C@]3(O)CC [CPT-11, Irinotecan] |  |  | 0.0 | 0 | 0.0 | 0 | 0.25 | 0 and 2 | 0.429 | 0 and D and 3 | 1.6 | 0 and D and 3 and 2 | 2.3 | 1 and D and 3 and 2 | 2.1 | 3 and 0 and D | patients at high risk of death owing to neutropenia (patients): ~ 3.5%; patients becoming dehydrated (patients): ~ 10%; patients suffering from severe delayed diarrhea (patients): 87%; diarrhea (BALB/c mice [2]; BALB/c mice, CPT-11 only, 30 mg per kg daily, 10 days): developed diarrhea on day 7, until they reached a peak on day 11; also recorded: severe diarrhea from days 7–11; Mean ± SEM of Diarrhea score (BALB/c mice [2]; day 9, Welch's unpaired t-test table): 0.0 ± 0.0 N=7; Mean ± SEM of Diarrhea score (BALB/c mice [2]; day 10, Welch's unpaired t-test table): 0.0 ± 0.0 N=7; Mean ± SEM of Diarrhea score (BALB/c mice [2]; day 11, Welch's unpaired t-test table): 0.2857 ± 0.1844 N=7; Mean ± SEM of Diarrhea score (BALB/c mice [2]; day 12, Welch's unpaired t-test table): 0.3333 ± 0.2108 N=6
4 | CCC[C@@H]1NC[C@@H](O)[C@H](O)[C@H]1CO [Compound 11] | 4.5 | 272 |  |  |  |  |  |  |  |  |  |  |  |  |  |  | 
5 | CCCCCCCCC[C@@H]1NC[C@@H](O)[C@H](O)[C@H]1CO [Compound 13] | -0.5 | 3.6 |  |  |  |  |  |  |  |  |  |  |  |  |  |  | 
6 | CCOc1ccc(NC(=S)N(CCO)Cc2cc3cc(C)cc(C)c3[nH]c2=O)cc1 [ASN03273363, reference compound] |  |  |  |  |  |  |  |  |  |  |  |  |  |  |  |  | health of the epithelial layer and intestinal glandular structure (hematoxylin and eosin staining) (BALB/c mice [3]): neither compound affected the health of the epithelial layer or the intestinal glandular structure
